Four compounds from ChEMBL document CHEMBL1201862, “PubChem BioAssay data set” (2004) can be followed below.

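Briefly, cells in 96-well plates were exposed to five compound concentrations for 48 h, and endpoints were estimated by linear interpolation. The concentration for 50% growth inhibition is given as GI50.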 Calls of active or inactive are those of the source. No stated cut-off is given here; in the data, active = GI50 up to about 1.1 µM and inactive = higher.

Holding throughout (assay): NCI-60 cell line screen, 48 h
For assay [1], the system named is MCF7.
The test system of assay [2] is K562.
The subject of assay [3] is U-251.
Assay [4] deals with SK-OV-3.
For assay [5], the system named is MOLT-4.
Assay [6] deals with MDA-MB-231.
The test system of assay [7] is SK-MEL-28.
Assay [8] concerns OVCAR-5.
Assay [9] relates to SN12C.
For assay [10], the system named is MDA-MB-435.
The test system of assay [11] is KM12.
Assay [12] deals with HOP-62.
Assay [13] has as its system SF-295.
In assay [14] the test system is M14.
The test system of assay [15] is Malme-3M.
The test system of assay [16] is IGROV-1.
In assay [17] the test system is T47D.
Assay [18] relates to EKVX.
Assay [19] relates to SK-MEL-2.

On to `CCOC(=O)c1c(SC(=O)C(C)(C)Oc2ccc(Cl)cc2)n(-c2ccccc2)c(=S)n(-c2ccccc2)c1=O`, for which the GI50 in assay [1] is 21.5 µM (inactive); in assay [2], 30.8 µM (inactive); in assay [3] it was 19.6 µM (inactive); in assay [4], 45.6 µM (inactive); in assay [5], 24.9 µM (inactive); in [6], 26.6 µM (inactive). The GI50 in assay [7] was 62.5 µM (inactive); in assay [8] it was 67 µM (inactive); in [9] it was 25.2 µM (inactive); in assay [10], 33 µM (inactive); in assay [11], 24.8 µM (inactive); in assay [12], 26 µM (inactive). Further, the GI50 in [13] is 59.2 µM (inactive); in [14] it was 30.3 µM (inactive); in assay [15] it was 23 µM (inactive); in assay [16], 20.1 µM (inactive); in [17], 84.5 µM (inactive); in [18] it was 52.8 µM (inactive).
`CC(C)(C)c1ccc(/C=N/NC(=O)CSCC(=O)N/N=C/c2ccc(C(C)(C)C)cc2)cc1`: the GI50 in assay [1] is 2.28 µM (inactive); in assay [2], 2.55 µM (inactive); in assay [3], 1.61 µM (inactive); in [4], 5.61 µM (inactive); in assay [5], 2.12 µM (inactive); in assay [6], 0.22 µM (active). Further, the GI50 in assay [7] is 6.17 µM (inactive); in assay [8], 3.03 µM (inactive); in [9], 1.77 µM (inactive); in [11], 2.53 µM (inactive); in [12], 2.96 µM (inactive); in [14] it was 1.57 µM (inactive). Besides, the GI50 in assay [15] is 9.1 µM (inactive); in assay [16] it was 0.64 µM (active); in assay [17], 4.88 µM (inactive); in [19], 2.28 µM (inactive); in assay [18], 2.65 µM (inactive).
For the compound `CC(C)=Cc1cc(C)c2c(O)cc(C)c3c2c1C(C)=C(O)C3=O`, the GI50 is 24.3 µM (inactive) in assay [1]; 13 µM (inactive) in assay [2]; 32.7 µM (inactive) in assay [3]; 28.9 µM (inactive) in [4]; 25.8 µM (inactive) in assay [5]; 24.9 µM (inactive) in assay [6]. The GI50 in assay [8] was 28.7 µM (inactive); in assay [9], 32.9 µM (inactive); in assay [10], 26.5 µM (inactive); in assay [11], 20.5 µM (inactive); in assay [12] it was 20.7 µM (inactive); in assay [13], 22.2 µM (inactive). The GI50 was 22.4 µM (inactive) in assay [14], 27.5 µM (inactive) in assay [16], 21.2 µM (inactive) in assay [17] and 22.9 µM (inactive) in assay [19].
With `COCOC1CCCC[C@@]1(OCCOCCO[C@@]1(c2ccccc2)CCCC[C@H]1OCOC)c1ccccc1` (stereo partly specified), the GI50 in [2] was > 100 µM (inactive); in assay [3], > 100 µM (inactive); in assay [4], 67.9 µM (inactive); in [5], > 10 µM (inactive); in assay [7], > 100 µM (inactive); in assay [8], > 100 µM (inactive). For the same compound, the GI50 in assay [9] is > 100 µM (inactive); in assay [11], > 100 µM (inactive); in assay [12] it was > 100 µM (inactive); in assay [13], 32.4 µM (inactive); in assay [14], 44.7 µM (inactive); in assay [15], > 100 µM (inactive). For the same compound, the GI50 in assay [16] was > 100 µM (inactive); in assay [19] it was > 100 µM (inactive); in assay [18], 37.8 µM (inactive).
